{
  "source": "patent US5308843A",
  "about": "“Method of inhibiting mammalian topoisomerase II and malignant cell growth in mammals, with substituted (S)-3-methyl-7-oxo-2,3-dihydro-7H-pyrido[1,2,3-de][1,4 ]-benzoxazine(and-benzothiazine)-6-carboxylic acids” (Sterling Drug Inc., priority 1990, dated 1994)",
  "design_in_all_cases": "species or system mice",
  "key": {"B16 melanoma": {"tested_on": "B16 melanoma", "test": "In vivo antitumor assay, B16 melanoma (IP)", "source_text": "(§1) In vivo Antitumor Assay Procedure\n(§2) Mice: Inbred: C3H/He; and Hybrids: B6D2F1 (C57BL/6 females×DBA/2 males), CD2F1 (Balb/c females×DBA/2 males) and B6C3F1 (C57BL/6×C3H) were bred at Wayne State University from strains obtained from the Frederick Cancer Research Facility, Frederick, Md. or from commercial suppliers.\n(§3) Tumors: Murine Tumors: P388 leukemia and the following transplantable solid tumors of mice were used for in vivo testing: B16 melanoma, pancreatic ductal adenocarcinoma No. 03, colon adenocarcinoma No. 38 and mammary ductal adenocarcinoma No. 16/C. All tumors are in the Developmental Therapeutics Program frozen tumor repository, maintained by the Biological Testing Branch, Frederick, Md. Each has a detailed description, code identification number, and list of references at the National Tumor Repository. Tumors were maintained in the mouse strain of origin and were transplanted in the appropriate F1 hybrid (or the strain of origin) for therapy trials. The mice were supplied food and water ad libitum.\n(§4) For P388 leukemia and B16 melanoma studies the tumor cells were implanted IP on day zero and treatment was started on day one (also IP). Titered controls were also included to facilitate the calculation of tumor cell kill.\n(§5) End Points for Assessing Antitumor Activity: Quantitative end points used to assess antitumor activity included % Increased Life Span (% ILS), Tumor Cell Kill (Log10 kill), and Tumor Growth Inhibition (T/C). Long Term Survivors (45 or 60 day) were excluded from calculations of % ILS and Tumor Cell Kill.\n(§6) Endpoints were calculated as follows: [formula] where Dt is the median day of death for treated and Dc is the median day of death for control groups.\n(§7) The log10 cell kill was calculated from the following formula: [formula] where T-C is the tumor difference in the median day of death between the treated (T) and the control (C) groups and Td is the tumor doubling time (in days), the latter estimated from the best fit straight line from a log-linear growth plot of the control-group tumors in exponential growth. The conversion of the T-C values to log10 cell kill is possible because the Td for tumors regrowing post-treatment approximated the Td values of the tumors in untreated control mice."}, "[1]": {"tested_on": "mammary ductal adenocarcinoma No. 16/C", "test": "In vivo antitumor assay, mammary ductal adenocarcinoma No. 16/C (SC)", "source_text": "as §1, §2, §3\n(§8) Chemotherapy: For pancreatic ductal adenocarcinoma No. 03, colon adenocarcinoma No. 38, and mammary ductal adenocarcinoma No. 16, the following methods were used to help ensure a more uniform tumor burden per mouse (thus reducing the requirement for greater numbers of mice per group), bilateral tumor implants were used. The animals necessary to begin an experiment were pooled, implanted bilaterally s.c. on day zero with 30-60-mg tumor fragments using a 12-gauge trocar, and again pooled before randomization to the various treatment and control groups. Chemotherapy was started within three days after tumor implantation while the number of cells per mouse was relatively small (1×10^7 -1×10^8 cells).\nas §5, §6\n(§9) T/C Value: Tumors were measured with a caliper once or twice weekly (as needed) until either tumors exceeded 1600 mg or cure was assured. Tumor weights were estimated from two-dimensional measurements: Tumor Weight (mg)=(a×b^2)/2, where a and b are the tumor length and width (mm), respectively. Measurements were carried out simultaneously in both the treatment and control groups. When the control group tumors reached approximately 750-1500 mg in size (median of group), the median tumor weight of each group was determined (including zeros). The T/C value in percent is an indication of antitumor effectiveness. […]. […]"}, "[2]": {"test": "In vivo antitumor assay, mammary ductal adenocarcinoma No. 16/C (SC)", "details": "mouse, in vivo; Mam16/C (SC); drug SC; QD1-4; read-out: Maximum Tolerated Total Dose", "source_text": "as §1, §2, §3, §8, §5, §6, §9"}, "P388 leukemia": {"tested_on": "P388 leukemia", "test": "In vivo antitumor assay, P388 leukemia (IP)", "details": "for % ILS / Long Term Survivors: P388(IP) 10^6 cells, drug IP", "source_text": "as §1, §2, §3, §4, §5, §6, §7"}, "[3]": {"test": "In vivo antitumor assay, P388 leukemia (IP)", "details": "mouse, in vivo, P388(IP) 10^6 cells, drug IP, read-out: Maximum Tolerated Total Dose", "source_text": "as §1, §2, §3, §4, §5, §6, §7"}},
  "note": "Entries after “also recorded” stand apart in the source; their conditions may differ.",
  "data": [
    {"smiles": "Cc1cc(-c2c(F)cc3c(=O)c(C(=O)O)cn4c3c2SC[C@@H]4C)cc(C)n1", "note": "[Example 5, (S)-10-(2,6-Dimethyl-4-pyridinyl)-9-fluoro-3-methyl-7-oxo-2,3-dihydro-7H-pyrido[1,2,3-de][1,4]benzothiazine-6-carboxylic acid]", "values": [
      {"measurement": "% ILS", "setting": "B16 melanoma; B16(IP), drug IP, QD1,5,9, 1500 mg/kg total", "result": 66, "unit": "%"},
      {"measurement": "Long Term Survivors", "setting": "B16 melanoma; B16(IP), drug IP, QD1,5,9, 1500 mg/kg total, footnote 5: Day 60, tumor evident", "result": "1/6"},
      {"measurement": "antitumor activity (in words)", "setting": "B16 melanoma; B16 melanoma IP", "result": "Day 60; tumor evident; also recorded: good activity"},
      {"measurement": "log10 tumor cell kill", "setting": "B16 melanoma; B16 melanoma IP", "result": 2.0, "unit": "log10"},
      {"measurement": "Long Term Survivors", "setting": "[1]; Mam16/C (SC), drug SC, QD1-4, 263 mg/kg total", "result": "0/5"},
      {"measurement": "% T/C", "setting": "[1]; Mam16/C (SC), drug SC, QD1-4, at maximum tolerated total dose 263 mg/kg", "result": 15, "unit": "%"},
      {"measurement": "antitumor activity (in words)", "setting": "[1]; Mammary Adenocarcinoma No. 16/C", "result": "clearly active"},
      {"measurement": "MTD", "setting": "[2]", "result": 263, "unit": "mg/kg"},
      {"measurement": "% ILS", "setting": "P388 leukemia; QD1,5,9, 1014 mg/kg total", "result": 90, "unit": "%"},
      {"measurement": "Long Term Survivors", "setting": "P388 leukemia; QD1,5,9, 1014 mg/kg total", "result": "0/6"},
      {"measurement": "% ILS", "setting": "P388 leukemia; QD1-7, 504 mg/kg total", "result": 92, "unit": "%"},
      {"measurement": "Long Term Survivors", "setting": "P388 leukemia; QD1-7, 504 mg/kg total", "result": "0/5"},
      {"measurement": "antitumor activity (in words)", "setting": "P388 leukemia; P388, 90% ILS", "result": "excellent activity"},
      {"measurement": "log10 tumor cell kill", "setting": "P388 leukemia; P388, equal to 90% ILS", "result": "5.2-7.0 log10"},
      {"measurement": "MTD", "setting": "[3]; QD1,5,9, vehicle 5% EtOH, 1% NaHCO3, 0.3% tween40 (pH 8.3)", "result": 1010, "unit": "mg/kg"},
      {"measurement": "MTD", "setting": "[3]; QD1-7, vehicle 3% EtOH, 3% NaHCO3, 1% tween40", "result": 504, "unit": "mg/kg"}
    ]}
  ]
}
